Results reported in patent publication US7524844B2, “Dipeptidyl peptidase IV inhibitors, process for their preparation and compositions containing them” (Glenmark Pharmaceuticals S.A., priority 2004, dated 2009).
Structures can show the parent of a compound that is named as a salt.

target: T1, human recombinant Dipeptidyl peptidase IV enzyme (DPP-IV) (Homo sapiens, UniProt P27487); assay: in-vitro DPP-IV assay (cleavage of AMC from Gly-Pro-AMC); assay type: biochemical; settings: human recombinant DPP-IV, Gly-Pro-AMC substrate, 30° C., 30 minutes; read-out: DPP-IV inhibition using human recombinant DPP-IV enzyme, IC50
T1 construct: purchased R&D Systems Inc. of Minneapolis, Minn
Experimental: DPP-IV activity was determined by the cleavage rate of 7-amino-4-methyl coumarin (AMC) from the synthetic substrate Glycyl-Prolyl-AMC. In brief, the assay was conducted by adding 10 ng of human recombinant Dipeptidyl peptidase IV enzyme (DPP-IV, available commercially from R&D Systems Inc. of Minneapolis, Minn.) in 50 μl of the assay buffer (25 mM Tris, pH 7.4, 140 mM NaCl, 10 mM KCl, 1% BSA) to 96 well black flat bottom microtiter plates. The reaction was initiated by adding 50 μl of 100 μM substrate Gly-Pro-AMC. The incubation was carried out in the kinetic mode at 30° C. for 30 minutes. Fluorescence was measured using Fluorostar with an excitation filter of 380 nm and emission filter of 460 nm. Test compounds and solvent controls were added as 1 μl additions. A standard curve of free amino methyl coumarin (AMC) was generated using 0-100 μM AMC in the assay buffer. The curve generated, which was linear was used for the interpolation of catalytic activity.
Test compounds dissolved in DMSO at 5-6 concentrations were tested in duplicate along with the solvent control and blank samples. Percent inhibition was calculated at each concentration with respect to the solvent control sample (no test compound added). […]

T1 sequence (P27487 whole entry): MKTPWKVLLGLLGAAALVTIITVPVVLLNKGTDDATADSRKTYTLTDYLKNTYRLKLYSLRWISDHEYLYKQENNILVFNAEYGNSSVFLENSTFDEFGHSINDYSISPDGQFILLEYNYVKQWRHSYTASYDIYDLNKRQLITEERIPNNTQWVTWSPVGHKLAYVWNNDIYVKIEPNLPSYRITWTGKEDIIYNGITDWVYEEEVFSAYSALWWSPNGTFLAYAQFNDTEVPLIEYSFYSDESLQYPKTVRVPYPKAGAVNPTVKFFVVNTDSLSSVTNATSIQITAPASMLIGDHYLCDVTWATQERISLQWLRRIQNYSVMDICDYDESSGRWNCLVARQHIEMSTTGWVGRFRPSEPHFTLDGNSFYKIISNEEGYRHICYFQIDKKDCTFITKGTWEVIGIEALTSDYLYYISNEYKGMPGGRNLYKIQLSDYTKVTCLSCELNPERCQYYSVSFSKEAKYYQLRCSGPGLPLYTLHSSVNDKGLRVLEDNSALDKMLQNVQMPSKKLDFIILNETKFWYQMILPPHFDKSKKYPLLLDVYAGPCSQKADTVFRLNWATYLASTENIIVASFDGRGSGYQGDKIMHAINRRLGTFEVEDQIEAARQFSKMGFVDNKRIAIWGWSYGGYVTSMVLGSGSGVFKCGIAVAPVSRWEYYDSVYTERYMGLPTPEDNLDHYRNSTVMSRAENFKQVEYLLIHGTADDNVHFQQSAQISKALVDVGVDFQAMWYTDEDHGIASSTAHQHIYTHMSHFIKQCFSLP

| Compound | IC50 |
| --- | --- |
| N#CCC[C@H]1CC[C@@H](NCC(=O)N2C[C@@H](F)C[C@H]2C#N)C1 [Example-9, 3-((1R,3R)-3-{2-[(2S,4S)-2-Cyano-4-fluoropyrrolidin-1-yl]-2-oxoethylamino}-cyclopentyl)propanenitrile] | 3.93 nM |
| N#C[C@@H]1CCCN1C(=O)CN[C@@H]1CC[C@H](CNC(=O)Nc2ccccc2)C1 [Example-13, N1-Phenyl-N3-((1S,3R)-3-{2-[(2S)-2-cyanopyrrolidin-1-yl]-2-oxoethylamino}-cyclopentylmethyl)urea] | 31.9 nM |
| N#C[C@@H]1CCCN1C(=O)CN[C@@H]1CC[C@H](CNC(=O)Nc2ccc(F)cc2F)C1 [Example-14, N1-(2,4-Difluorophenyl)-N3-((1S,3R)-3-{2-[(2S)-2-cyanopyrrolidin-1-yl]-2-oxoethyl-amino}cyclopentylmethyl)urea] | 26.3 nM |
| N#C[C@@H]1C[C@H](F)CN1C(=O)CN[C@@H]1CC[C@H](Cc2ccccc2)C1 [Example-15, (2S,4S)-1-{2-[(1R,3R)-3-Benzylcyclopentylamino]acetyl}-4-fluoropyrrolidin-2-yl cyanide] | 6.06 nM |
| COc1ccccc1C[C@H]1CC[C@@H](NCC(=O)N2C[C@@H](F)C[C@H]2C#N)C1 [Example-16] | 17.7 nM |
| N#C[C@@H]1CCCN1C(=O)CN[C@@H]1CC[C@H](CN2CCCS2(=O)=O)C1 [Example-18, (2S)-1-{2-[(3S,1R)-3-(1,1-Dioxo-2-isothiazolidinylmethyl)cyclopentylamino]acetyl}-pyrrolidine-2-carbonitrile] | 29.4 nM |
| N#C[C@@H]1CCCN1C(=O)CN[C@@H]1CC[C@H](CN2CCOCC2)C1 [Example-19, (2S)-1-{2-[(3S,1R)-3-Morpholinomethylcyclopentylamino]acetyl}pyrrolidine-2-carbonitrile] | 20.1 nM |
| N#C[C@@H]1CCCN1C(=O)CN[C@H]1CC[C@@H](CN2CCN(c3ccccc3)CC2)C1 [Example-23, (2S)-1-{2-[(1S,3R)-3-(4-Phenylpiperazinomethyl)cyclopentylamino]acetyl}-pyrrolidine-2-carbonitrile] | 32 nM |
| Cc1ccc(C)n1C[C@H]1CC[C@@H](NCC(=O)N2CCC[C@H]2C#N)C1 [Example-24, (2S)-1-{2-[(3S,1R)-3-(2,5-Dimethyl-1H-1-pyrrolylmethyl)cyclopentylamino}acetyl}-pyrrolidine-2-carbonitrile] | 4.19 nM |
| Cc1ccc(C)n1C[C@H]1CC[C@@H](NCC(=O)N2C[C@@H](F)C[C@H]2C#N)C1 [Example-25, (2S,4S)-1-{2-[(3S,1R)-3-(2,5-Dimethyl-1H-1-pyrrolylmethyl)cyclopentylamino]-acetyl}-4-fluoropyrrolidine-2-carbonitrile] | 7.4 nM |
| N#Cc1cccn1C[C@H]1CC[C@@H](NCC(=O)N2CCC[C@H]2C#N)C1 [Example-26, 1-((1S,3R)-3-{2-[(2S)-2-Cyanopyrrolidin-1-yl]-2-oxoethylamino}cyclopentylmethyl)-1H-pyrrole-2-carbonitrile] | 5.94 nM |
| N#C[C@@H]1CCCN1C(=O)CN[C@H]1CC[C@@H](Cn2cccn2)C1 [Example-28, (2S)-1-{2-[(1S,3R)-3-(1H-Pyrazol-1-ylmethyl)cyclopentylamino]acetyl}pyrrolidine-2-carbonitrile] | 37.3 nM |
| N#C[C@@H]1CCCN1C(=O)CN[C@@H]1CC[C@H](Cn2ccnc2)C1 [Example-29, (2S)-1-{2-[(3S,1R)-3-(1H-1-Imidazolylmethyl)cyclopentylamino]acetyl}pyrrolidine-2-carbonitrile] | 11.2 nM |
| N#Cc1ncn(C[C@H]2CC[C@@H](NCC(=O)N3CCC[C@H]3C#N)C2)c1C#N [Example-34, 1-((1S,3R)-3-{2-[(2S)-2-Cyanopyrrolidin-1-yl]-2-oxoethylamino}cyclopentylmethyl)-1H-4,5-imidazoledicarbonitrile] | 9.36 nM |
| N#C[C@@H]1CCCN1C(=O)CN[C@@H]1C=C[C@H](Cn2cncn2)C1 [Example-35] | 68.3 nM |
| N#C[C@@H]1CCCN1C(=O)CN[C@@H]1CC[C@H](Cn2cncn2)C1 [Example-37, (2S)-1-{2-[(3S,1R)-3-(1H-1,2,4-Triazol-1-ylmethyl)cyclopentylamino]acetyl}-pyrrolidine-2-carbonitrile] | 5.1 nM |
| N#C[C@@H]1CCCN1C(=O)CN[C@@H]1CC[C@H](Cn2cncn2)C1 [Example-39, (2S)-1-{2-[(3S,1R)-3-(1H-1,2,4-Triazol-1-ylmethyl)cyclopentylamino]acetyl}-pyrrolidine-2-carbonitrile maleate] | 5.05 nM |

| Compound | IC50 |
| --- | --- |
| N#C[C@@H]1CCCN1C(=O)CN[C@H]1CC[C@@H](Cn2cncn2)C1 [Example-40, (2S)-1-{2-[(3R,1S)-3-(1H-1,2,4-Triazol-1-ylmethyl)cyclopentylamino]acetyl}-pyrrolidine-2-carbonitrile] | 12.5 nM |
| N#C[C@@H]1C[C@H](F)CN1C(=O)CN[C@@H]1CC[C@H](Cn2cncn2)C1 [Example-42, (2S,4S)-1-{2-[(3S,1R)-3-(1H-1,2,4-Triazol-1-ylmethyl)cyclopentylamino]acetyl}-4-fluoropyrrolidine-2-carbonitrile] | 1.61 nM |
| N#C[C@@H]1C[C@H](F)CN1C(=O)CN[C@@H]1CC[C@H](Cn2cncn2)C1 [Example-43, (2S,4S)-1-{2-[(3S,1R)-3-(1H-1,2,4-Triazol-1-ylmethyl)cyclopentylamino]acetyl}-4-fluoropyrrolidine-2-carbonitrile hydrochloride] | 6.25 nM |
| N#C[C@@H]1C[C@H](F)CN1C(=O)CN[C@@H]1CC[C@H](Cn2cncn2)C1 [Example-44, (2S,4S)-1-{2-1(3S,1R)-3-(1H-1,2,4-Triazol-1-ylmethyl)cyclopentylamino]acetyl}-4-fluoropyrrolidine-2-carbonitrile methanesulfonate] | 3.73 nM |
| N#C[C@@H]1C[C@H](F)CN1C(=O)CN[C@@H]1CC[C@H](Cn2cncn2)C1 [Example-45, (2S,4S)-1-{2-[(3S,1R)-3-(1H-1,2,4-Triazol-1-ylmethyl)cyclopentylamino]acetyl}-4-fluoropyrrolidine-2-carbonitrile oxalate] | 4.63 nM |
| N#C[C@@H]1C[C@H](F)CN1C(=O)CN[C@@H]1CC[C@H](Cn2cncn2)C1 [Example-46, (2S,4S)-1-{2-[(3S,1R)-3-(1H-1,2,4-Triazol-1-ylmethyl)cyclopentylamino]acetyl}-4-fluoropyrrolidine-2-carbonitrile succinate] | 4.37 nM |
| N#C[C@@H]1C[C@H](F)CN1C(=O)CN[C@@H]1CC[C@H](Cn2cncn2)C1 [Example-49, (2S,4S)-1-{2-[(3S,1R)-3-(1H-1,2,4-Triazol-1-ylmethyl)cyclopentylamino]acetyl}-4-fluoropyrrolidine-2-carbonitrile salicylate] | 3.22 nM |
| N#C[C@@H]1C[C@H](F)CN1C(=O)CN[C@H]1CC[C@@H](Cn2cncn2)C1 [Example-52, (2S,4S)-1-{2-[(1S,3R)-3-(1H-1,2,4-Triazol-1-ylmethyl)cyclopentylamino]acetyl}-4-fluoropyrrolidine-2-carbonitrile] | 3.54 nM |
| N#C[C@@H]1C[C@H](F)CN1C(=O)CN[C@@H]1CC[C@@H](Cn2cncn2)C1 [Example-53, (2S,4S)-4-Fluoro-1-{2-[(1R,3R)-3-(1H-1,2,4-Triazol-1-ylmethyl)cyclopentylamino]-acetyl}pyrrolidin-2-carbonitrile] | 5.12 nM |
| N#C[C@@H]1CCCN1C(=O)CN[C@H]1CC[C@@H](Cn2nccn2)C1 [Example-56, (2S)-1-{2-[(1S,3R)-3-(2H-1,2,3-Triazol-2-ylmethyl)cyclopentylamino]acetyl}-pyrrolidine-2-carbonitrile] | 78.9 nM |
| N#C[C@@H]1C[C@H](F)CN1C(=O)CN[C@H]1CC[C@@H](Cn2ccnn2)C1 [Example-57] | 5.88 nM |
| N#C[C@@H]1C[C@H](F)CN1C(=O)CN[C@H]1CC[C@@H](Cn2nccn2)C1 [Example-58, (2S,4S)-1-{2-[(1S,3R)-3-(2H-1,2,3-Triazol-2-ylmethyl)cyclopentylamino]acetyl}-4-fluoropyrrolidine-2-carbonitrile] | 10.6 nM |
| N#C[C@@H]1CCCN1C(=O)CN[C@@H]1CC[C@H](Cn2cnnn2)C1 [Example-59, (2S)-1-{2-[(3S,1R)-3-[1H-1 ,2,3,4-Tetrazol-1-ylmethyl]cyclopentylamino]acetyl}-pyrrolidine-2-carbonitrile] | 9.12 nM |
| N#C[C@@H]1CCCN1C(=O)CN[C@@H]1CC[C@H](Cn2cnnn2)C1 [Example-60, (2S)-1-{2-[(3S,1R)-3-(1H-1,2,3,4-Tetrazol-1-ylmethyl)cyclopentylamino]acetyl}-pyrrolidine-2-carbonitrile maleate] | 4.12 nM |
| N#C[C@@H]1CCCN1C(=O)CN[C@H]1CC[C@@H](Cn2cnnn2)C1 [Example-61, (2S)-1-{2-[(1S,3R)-3-(1H-1,2,3,4-Tetrazol-1-ylmethyl)cyclopentylamino]acetyl}-pyrrolidine-2-carbonitrile] | 11.4 nM |
| N#C[C@@H]1CCCN1C(=O)CN[C@@H]1CC[C@H](Cn2nnc(-c3ccc(F)cc3)n2)C1 [Example-62, (2S)-1-(2-{(3S,1R)-3-[5-(4-Fluorophenyl)-2H-1,2,3,4-tetrazol-2-ylmethyl]cyclo-pentylamino}acetyl)pyrrolidine-2-carbonitrile] | 8.73 nM |
| N#C[C@@H]1CCCN1C(=O)CN[C@@H]1CC[C@H](CN2CCc3ccccc32)C1 [Example-63] | 21.9 nM |
